ChEMBL document CHEMBL3885861, “Open TG-GATES”

Species on record: Rattus norvegicus
Assay: Open TG-GATES - Regimen: Daily Repeat
Format: toxicity, organism-based, Sprague-Dawley
Parameters: regimen Daily Repeat, gender Male, age 6 weeks
Conditions: in vivo, po, 10 mg/kg, route gavage, dose level Low; for APTT / Bas / Eos / Fbg / Hb / Ht / Lym / MCHC / MCV / Mono / Neu / PT / Plat / RBC / Ret / WBC: tissue Blood; for KIDNEY_L / KIDNEY_R / KIDNEY_TOTAL: tissue Kidney; for LIVER: tissue Liver; for ALP / ALT / AST / BUN / CRE / Ca / Cl / DBIL / GLC / IP / K / LDH / Na / PL / RALB / TBIL / TC / TG / TP / gamma-GTP: tissue Plasma

## CS(=O)(=O)Nc1ccc([N+](=O)[O-])cc1Oc1ccccc1 [NIMESULIDE]
72 h, time 3 day
  TERMINAL_BW: 219.5 g
  APTT: 16.3 s
  Bas: 0%
  Eos: 1.2%
  Fbg: 208.8 mg/dL
  Hb: 14 g/dL
  Ht: 41.3%
  Lym: 74.8%
  MCHC: 33.9%
  MCV: 63.4 fL
  Mono: 6.8%
  Neu: 17%
  PT: 11.4 s
  Plat: 114.4 x10_4/uL
  RBC: 651.8 x10_4/ul
  Ret: 10%
  WBC: 94 x10_2/uL
  KIDNEY_L: 1 g
  KIDNEY_R: 1 g
  KIDNEY_TOTAL: 1.9 g
  LIVER: 10.2 g
  ALP: 1001.2 IU/L
  ALT: 38.2 IU/L
  AST: 62.8 IU/L
  BUN: 18.8 mg/dL
  CRE: 0.6 mg/dL
  Ca: 10.8 mg/dL
  Cl: 103.6 meq/L
  DBIL: 0.056 mg/dL
  GLC: 195 mg/dL
  IP: 7.7 mg/dL
  K: 4.9 meq/L
  LDH: 105.6 IU/L
  Na: 139.4 meq/L
  PL: 145 mg/dL
  RALB: 4 g/dL
  TBIL: 0.3 mg/dL
  TC: 80 mg/dL
  TG: 75.8 mg/dL
  TP: 5.5 g/dL
  gamma-GTP: 1.2 IU/L
[…], time 7 day
  TERMINAL_BW: 242.4 g
  APTT: 17.2 s
  Bas: 0%
  Eos: 1%
  Fbg: 220.8 mg/dL
  Hb: 14.3 g/dL
  Ht: 41.8%
  Lym: 75.2%
  MCHC: 34.2%
  MCV: 61.7 fL
  Mono: 8.2%
  Neu: 15.4%
  PT: 11.2 s
  Plat: 129.4 x10_4/uL
  RBC: 678.4 x10_4/ul
  Ret: 4.9%
  WBC: 103.5 x10_2/uL
  KIDNEY_L: 1.1 g
  KIDNEY_R: 1.1 g
  KIDNEY_TOTAL: 2.2 g
  LIVER: 11.6 g
  ALP: 890.6 IU/L
  ALT: 36.6 IU/L
  AST: 64.4 IU/L
  BUN: 20 mg/dL
  CRE: 0.5 mg/dL
  Ca: 10.5 mg/dL
  Cl: 105.4 meq/L
  DBIL: 0.016 mg/dL
  GLC: 200.8 mg/dL
  IP: 7.6 mg/dL
  K: 4.6 meq/L
  LDH: 97 IU/L
  Na: 140.4 meq/L
  PL: 159.6 mg/dL
  RALB: 4.1 g/dL
  TBIL: 0.3 mg/dL
  TC: 81.4 mg/dL
  TG: 97.8 mg/dL
  TP: 5.9 g/dL
  gamma-GTP: 1.4 IU/L
[…], time 14 day
  TERMINAL_BW: 296.6 g
  APTT: 17.9 s
  Bas: 0%
  Eos: 1%
  Fbg: 227.8 mg/dL
  Hb: 14.5 g/dL
  Ht: 42.4%
  Lym: 83.8%
  MCHC: 34.3%
  MCV: 62.7 fL
  Mono: 4.8%
  Neu: 10.8%
  PT: 11.8 s
  Plat: 117.1 x10_4/uL
  RBC: 676.2 x10_4/ul
  Ret: 5.6%
  WBC: 121.2 x10_2/uL
  KIDNEY_L: 1.2 g
  KIDNEY_R: 1.2 g
  KIDNEY_TOTAL: 2.4 g
  LIVER: 14.2 g
  ALP: 649.2 IU/L
  ALT: 30.6 IU/L
  AST: 63.6 IU/L
  BUN: 21 mg/dL
  CRE: 0.6 mg/dL
  Ca: 10.6 mg/dL
  Cl: 106.4 meq/L
  DBIL: 0 mg/dL
  GLC: 201.8 mg/dL
  IP: 7.1 mg/dL
  K: 4.6 meq/L
  LDH: 88.6 IU/L
  Na: 141 meq/L
  PL: 161 mg/dL
  RALB: 3.9 g/dL
  TBIL: 0.3 mg/dL
  TC: 78 mg/dL
  TG: 147.6 mg/dL
  TP: 5.9 g/dL
  gamma-GTP: 1.8 IU/L
[…], time 28 day
  TERMINAL_BW: 395.2 g
  APTT: 18.6 s
  Bas: 0%
  Eos: 1%
  Fbg: 214.2 mg/dL
  Hb: 15.2 g/dL
  Ht: 45%
  Lym: 80.8%
  MCHC: 33.9%
  MCV: 57.7 fL
  Mono: 6.4%
  Neu: 11.6%
  PT: 11.9 s
  Plat: 117.6 x10_4/uL
  RBC: 782.6 x10_4/ul
  Ret: 2.8%
  WBC: 102.3 x10_2/uL
  KIDNEY_L: 1.4 g
  KIDNEY_R: 1.4 g
  KIDNEY_TOTAL: 2.8 g
  LIVER: 16.7 g
  ALP: 745.8 IU/L
  ALT: 34.6 IU/L
  AST: 65.2 IU/L
  BUN: 20 mg/dL
  CRE: 0.6 mg/dL
  Ca: 10.6 mg/dL
  Cl: 108.4 meq/L
  DBIL: 0.004 mg/dL
  GLC: 197 mg/dL
  IP: 6.8 mg/dL
  K: 4.6 meq/L
  LDH: 95.2 IU/L
  Na: 144.2 meq/L
  PL: 147.2 mg/dL
  RALB: 4.1 g/dL
  TBIL: 0.3 mg/dL
  TC: 65.8 mg/dL
  TG: 167 mg/dL
  TP: 6.2 g/dL
  gamma-GTP: 1.8 IU/L
